Test results: patent publication US20060024658A1, “Composition and methods for evaluating an organism's response to alcohol or stimulants” (priority 1998, published 2006)
Where two headings read alike, the source gives them in different places.

Key:
[1] = system: SHSY-5Y cells; assay: Effects of alcohols on gene expression (array hybridization intensity) in SHSY-5Y cells, Study 1; assay type: cell-based, human; conditions: for Co-Activ increase in hybridization / MAP4 increase in hybridization / Na/H Anti increase in hybridization / ZNFP increase in hybridization: 50 mM alcohol, early (2 hour) response, FIG. 2B; for DBH hybridization intensity over baseline / DLK hybridization intensity over baseline / GABA-β3 hybridization intensity over baseline / NPTX2 hybridization intensity over baseline / PDGFR hybridization intensity over baseline / PTK hybridization intensity over baseline: FIG. 2A
Description: Hybridization strength is given a baseline of 1 and increased intensity is expressed in as a multiple of the baseline, i.e., 2-fold, 3-fold, 4-fold etc.
Column 1 lists the presumed functional class of the gene.
Columns are similar to Table 8.

[2] = system: SH-SY5Y cells; assay: Effect of dexamethasone and db-cAMP on expression of DBH, NET, DLK and MCP-1; assay type: cell-based, human; conditions: 1 mM; data not shown
Description: Previous studies have shown that neuroblastoma cells derived from the neural crest could differentiate either towards a more neuronal phenotype in the presence of retinoic acid, or a chromaffin-like phenotype in the presence of glucocorticoids or dibutyryl-cyclic AMP (db-cAMP). […] Therefore, we tested the effect of dexamethasone and db-cAMP on the expression of our 4 candidate genes.

[3] = system: DBH protein in SH-SY5Y cells
Description: (§1) The relative amount of DBH protein between whole cell homogenates of control and ethanol-treated cells was determined by Western blot analysis following standard protocols using a polyclonal antibody (Calbiochem). MCP-1 production was monitored in the culture media of cells treated in the absence or presence of ethanol using the Quantikine MCP-1 immunoassay from R&D System.

[4] = system: MCP-1 release from SH-SY5Y cells; conditions: ethanol-treated cells; FIG. 4C
Description: as §1

[5] = system: DBH mRNA in adrenal glands and brain; conditions: versus saline
Description: Animal studies were conducted on female DBA/2 mice (Simonsen Laboratories, Gilroy, Calif.) weighing 20-30 g at 8 weeks of age. All animals were housed individually under a 12:12 light-dark cycle at 22° C. and given ad libitum access to food and water before and after injection procedures. […] Adrenal glands were dissected out, immediately frozen into liquid nitrogen and stored at −80° C. until needed.
Aliquot of ss cDNA were then used in comparative PCR. […] We performed duplex reaction using GAPDH as an endogenous amplification standard. PCR conditions were optimized so that the amplification of both, GAPDH and DBH cDNAs were in the exponential phase.

[6] = system: human neuroblastoma SH-SY5Y cells; assay: Oligonucleotide array (Affymetrix GeneChip Hu6800) gene expression profile after ethanol; conditions: 72 h
[7] = system: SH-SY5Y cells; conditions: 150 mM ethanol, 3 days, media from last 24 h, n=3; control 0.957+/−0.49
Description: All HPLC apparatus was from ESA, Inc. (Chelmsford, Mass.). Following precipitation with 0.1 M perchloric acid and centrifugation over a 5000 MW cut-off centrifugal filter, culture media (10 μl aliquot) was injected onto an ESA HR-80 column (C-18, 4.6 mm×8 cm, 3 um particle size) using a Model 540 refrigerated autosampler injector and a Model 580 solvent delivery pump. […] Eluents were detected at a flow rate of 1.0 ml/min using a Model 5011 analytical cell with palladium reference electrode, a Model 5020 guard cell, and a Model 5200A Coulochem II electrochemical detector. Electrode settings were +350 mV for the guard cell, −100 mV for the pre-oxidation electrode, and +280 mV for the detection electrode. Samples were analyzed at 5 nA sensitivity and compared with a two-point monoamine standard calibration curve at 1 and 5 pg/μl using the Model 501 analysis software package.

[8] = system: SH-SY5Y cells
Description: RNA blots were probed with ^32P-labeled inserts of human DBH, NET, DLK and MCP-1 cDNAs. Probes were synthesized by RT-PCR using SH-SY5Y total RNA as template. […] Human GAPDH cDNA probe (Clonetech) was used as an internal control for total RNA normalization.

[9] = ethanol administration; cited from earlier work
[10] = system: noradrenergic receptors; conditions: in vivo; cited from earlier work
[11] = 50, 100, 150 mM ethanol, FIG. 3B

CO [methanol, reference compound]
Co-Activ increase in hybridization [1]: 1.5 fold
MAP4 increase in hybridization [1]: > 2 fold
Na/H Anti increase in hybridization [1]: 1.5 fold
ZNFP increase in hybridization [1]: 1.5 fold

CCCC(=O)Nc1ncnc2c1ncn2[C@@H]1O[C@@H]2COP(=O)(O)O[C@H]2[C@H]1OC(=O)CCC [db-cAMP, dibutyryl-cyclic AMP]
time after treatment at which effects were significant [2]: ≤ 24 h

CCO [ethanol]
DBH protein expression ([3]; 150 mM ethanol for 72 h, FIG. 4B): enhancement in DBH protein expression
duration of increase in DBH protein levels ([3]; continued presence of ethanol, data not shown): sustained up to 7 days treatment
MCP-1 peptide release in the culture media [4]: decrease in peptide release
DBH mRNA levels in the brain ([5]; 6 or 24 h after single dose 4 g/kg i.p., data not shown): No difference in expression
DBH mRNA levels in the adrenal ([5]; 6 h after single dose 4 g/kg i.p., data not shown): No difference in expression
DBH mRNA levels in the adrenal ([5]; 24 h after single dose 4 g/kg i.p., FIG. 5): significant increase
E100, change in expression of ARHGDIB (L20688) ([6]; 100 mM ethanol): −0.7
E100, change in expression of CPE (X51405) ([6]; 100 mM ethanol): 1.2
E100, change in expression of DBH (X13255) ([6]; 100 mM ethanol): 5.4
E100, change in expression of DLK1 (T49117) ([6]; 100 mM ethanol): 2.9
E100, change in expression of DUSP4 (U21108) ([6]; 100 mM ethanol): 0.9
E100, change in expression of E2-28.4 (EST) (R01227) ([6]; 100 mM ethanol): 1
E100, change in expression of EGFR (H02836) ([6]; 100 mM ethanol): 1
E100, change in expression of EST H08637 (NF1) ([6]; 100 mM ethanol): 0.9
E100, change in expression of EST R47985 (Acrosin) ([6]; 100 mM ethanol): −1.3
E100, change in expression of EST R60751 (IEP2) ([6]; 100 mM ethanol): −0.8
E100, change in expression of EST R73461 (TCRbeta) ([6]; 100 mM ethanol): −3.7
E100, change in expression of EST T94087 (JNK2) ([6]; 100 mM ethanol): 1
E100, change in expression of FKHL1 (R60332) ([6]; 100 mM ethanol): −0.9
E100, change in expression of GCH1 (U19523) ([6]; 100 mM ethanol): 1.6
E100, change in expression of GLRX (X76648) ([6]; 100 mM ethanol): 1.4
E100, change in expression of GPI-H (L19783) ([6]; 100 mM ethanol): −0.6
E100, change in expression of GSTM4 (M99422) ([6]; 100 mM ethanol): 0.9
E100, change in expression of HIRH (H14506) ([6]; 100 mM ethanol): −1
E100, change in expression of IL7 (J04156) ([6]; 100 mM ethanol): −0.7
E100, change in expression of KRT18 (T53412) ([6]; 100 mM ethanol): −2.3
E100, change in expression of LUM (U21128) ([6]; 100 mM ethanol): 1.6
E100, change in expression of MCP1 (M26683) ([6]; 100 mM ethanol): −1.9
E100, change in expression of MGP (H52207) ([6]; 100 mM ethanol): −0.7
E100, change in expression of NAIP (U19251) ([6]; 100 mM ethanol): 0.9
E100, change in expression of NEF3 (Y00067) ([6]; 100 mM ethanol): 1.4
E100, change in expression of NFIB2/3 (H91713) ([6]; 100 mM ethanol): 2.1
E100, change in expression of NP (T47964) ([6]; 100 mM ethanol): 0.5
E100, change in expression of NPTX2 (U29195) ([6]; 100 mM ethanol): 0.9
E100, change in expression of NSMAF (R41765) ([6]; 100 mM ethanol): 1.1
E100, change in expression of PGY1 (M29447) ([6]; 100 mM ethanol): 2.3
E100, change in expression of PMSCL2 (R40490) ([6]; 100 mM ethanol): 0.7
E100, change in expression of PRHX (X67235) ([6]; 100 mM ethanol): 1
E100, change in expression of RAC2 (H42477) ([6]; 100 mM ethanol): −0.9
E100, change in expression of RPL14 (R82938) ([6]; 100 mM ethanol): −0.5
E100, change in expression of SLC6A2(NET) (M65105) ([6]; 100 mM ethanol): 2.6
E100, change in expression of SOX9 (Z46629) ([6]; 100 mM ethanol): −1.2
E100, change in expression of SPARC (T54767) ([6]; 100 mM ethanol): −1.3
E100, change in expression of SSH3BP1 (R34245) ([6]; 100 mM ethanol): 0.7
E100, change in expression of TMPO (U09086) ([6]; 100 mM ethanol): 1
E100, change in expression of TP53 (X54156) ([6]; 100 mM ethanol): −1.1
E100, change in expression of ZNF42 (R83364) ([6]; 100 mM ethanol): −1.9
DBH mRNA levels, dose dependence [6, 11]: changed in a dose-dependent manner
DLK, NET and MCP-1 gene expression, dose dependence [6, 11]: showed a dose-response
expression of gene encoding α7 subunit of the neuronal acetylcholine receptor (nAChRα7) ([6]; 100 mM ethanol, FIG. 3A): downregulated
NE levels in the media [7]: 23.554+/−5.218 ng/mg of protein
Co-Activ increase in hybridization [1]: 4 fold
MAP4 increase in hybridization [1]: 3 fold
Na/H Anti increase in hybridization [1]: ~6 fold
ZNFP increase in hybridization [1]: 7.5 fold
DBH hybridization intensity over baseline ([1]; 50 mM ethanol): 3 fold
DLK hybridization intensity over baseline ([1]; 50 mM ethanol, baseline = 1): just over the baseline
GABA-β3 hybridization intensity over baseline ([1]; 50 mM ethanol, baseline = 1): just over the baseline
NPTX2 hybridization intensity over baseline ([1]; 50 mM ethanol, baseline = 1): just over the baseline
PDGFR hybridization intensity over baseline ([1]; 50 mM ethanol, baseline = 1): just over the baseline
PTK hybridization intensity over baseline ([1]; 50 mM ethanol, baseline = 1): just over the baseline
DBH hybridization intensity over baseline ([1]; 100 mM ethanol): 5 fold
DLK hybridization intensity over baseline ([1]; 100 mM ethanol): 3 fold
GABA-β3 hybridization intensity over baseline ([1]; 100 mM ethanol): around 2 fold
NPTX2 hybridization intensity over baseline ([1]; 100 mM ethanol): around 2 fold
PDGFR hybridization intensity over baseline ([1]; 100 mM ethanol): 3 fold
PTK hybridization intensity over baseline ([1]; 100 mM ethanol): 3 fold
DBH hybridization intensity over baseline ([1]; 150 mM ethanol): ~9 fold
DLK hybridization intensity over baseline ([1]; 150 mM ethanol): ~7 fold
GABA-β3 hybridization intensity over baseline ([1]; 150 mM ethanol): 2 fold
NPTX2 hybridization intensity over baseline ([1]; 150 mM ethanol): 2 fold
PDGFR hybridization intensity over baseline ([1]; 150 mM ethanol): 5 fold
PTK hybridization intensity over baseline ([1]; 150 mM ethanol): 2 fold
DBH, DLK and NET mRNA levels ([8]; 3 days treatment, FIG. 4A): increase
MCP-1 transcript levels ([8]; 3 days treatment, FIG. 4A): decrease
time after addition at which changes in expression were detected ([8]; DBH, DLK, NET, MCP-1, data not shown): ≤ 24 h
plasma norepinephrine levels [9]: dose-dependent elevation

CCCO [propanol, reference compound]
Co-Activ increase in hybridization [1]: > 6.5 fold
MAP4 increase in hybridization [1]: 4 fold
Na/H Anti increase in hybridization [1]: 6.5 fold
ZNFP increase in hybridization [1]: > 6 fold

Clc1cccc(Cl)c1N=C1NCCN1 [clonidine]
ethanol withdrawal syndrome [10]: strongly reduce ethanol withdrawal syndrome
